# According to ChEMBL document CHEMBL3351699, “Diarylthiazole: an antimycobacterial scaffold potentially targeting PrrB-PrrA two-component system” (J Med Chem, 2014):
# Tests used:
# [1] = tested on: Mycobacterium tuberculosis; assay: Antimicrobial activity against Mycobacterium tuberculosis H37Rv ATCC 27294 assessed as growth inhibition after 5 days by microdilution method; assay type: functional; details: H37Rv ATCC 27294, 120 h
# [2] = Solubility of the compound; assay type: physicochemical
# [3] = tested on: Mycobacterium tuberculosis; assay: Bactericidal activity against Mycobacterium tuberculosis H37Rv ATCC 27294 after 5 days by microdilution method; assay type: functional; details: H37Rv ATCC 27294, 120 h
# [4] = tested on: Mycobacterium tuberculosis; assay: Ratio of MBC for Mycobacterium tuberculosis H37Rv ATCC 27294 to MIC for Mycobacterium tuberculosis H37Rv ATCC 27294; assay type: functional
# [5] = tested on: Mycobacterium tuberculosis; assay: Antimicrobial activity against clinical isolate Mycobacterium tuberculosis H37Rv ATCC 27294 assessed as growth inhibition after 7 days by turbidometry; assay type: functional; details: H37Rv ATCC 27294, 168 h
# [6] = tested on: Mycobacterium tuberculosis; assay: Antimicrobial activity against clinical isolate Mycobacterium tuberculosis ATCC25618 assessed as growth inhibition after 7 days by turbidometry; assay type: functional; details: ATCC25618, 168 h
# [7] = tested on: Mycobacterium tuberculosis; assay: Antimicrobial activity against clinical isolate Mycobacterium tuberculosis Erdman assessed as growth inhibition after 7 days by turbidometry; assay type: functional; details: 168 h
# [8] = tested on: Mycobacterium tuberculosis; assay: Antimicrobial activity against clinical isolate Mycobacterium tuberculosis Beijing assessed as growth inhibition after 7 days by turbidometry; assay type: functional; details: 168 h
# [9] = tested on: Mycobacterium tuberculosis; assay: Antimicrobial activity against clinical isolate Mycobacterium tuberculosis Harlingen assessed as growth inhibition after 7 days by turbidometry; assay type: functional; details: 168 h
# [10] = tested on: Mycobacterium tuberculosis; assay: Antimicrobial activity against clinical isolate Mycobacterium tuberculosis ATCC35811 assessed as growth inhibition after 7 days by turbidometry; assay type: functional; details: ATCC35811, 168 h
# [11] = tested on: Mycobacterium tuberculosis; assay: Antimicrobial activity against clinical isolate Mycobacterium tuberculosis DKU76 assessed as growth inhibition after 7 days by turbidometry; assay type: functional; details: DKU76, 168 h
# [12] = tested on: Mycobacterium tuberculosis; assay: Antimicrobial activity against clinical isolate Mycobacterium tuberculosis DKU97A assessed as growth inhibition after 7 days by turbidometry; assay type: functional; details: 168 h
# [13] = tested on: Mycobacterium tuberculosis; assay: Antimicrobial activity against clinical isolate Mycobacterium tuberculosis DKU211 assessed as growth inhibition after 7 days by turbidometry; assay type: functional; details: DKU211, 168 h
# [14] = tested on: Mycobacterium tuberculosis; assay: Antimicrobial activity against clinical isolate Mycobacterium tuberculosis DKU220 assessed as growth inhibition after 7 days by turbidometry; assay type: functional; details: DKU220, 168 h
# [15] = tested on: Mycobacterium tuberculosis; assay: Antimicrobial activity against clinical isolate Mycobacterium tuberculosis JAL assessed as growth inhibition after 7 days by turbidometry; assay type: functional; details: 168 h
# [16] = Unbound fraction in mouse plasma; assay type: ADME, cell-free
# [17] = Intrinsic clearance in mouse liver microsomes; assay type: ADME; details: read-out: CLH
# [18] = Intrinsic clearance in human liver microsomes; assay type: ADME; details: read-out: CLH
compound,measurement,setting,value
CCCc1cc(-c2nc(-c3cccnc3)cs2)ccn1,MIC80,[1],1.6 µg/mL
CCCc1cc(-c2nc(-c3ccc(Cl)cc3)c(C(=O)OCC)s2)ccn1,MIC80,[1],> 32 µg/mL
CCCc1cc(-c2nc(-c3ccc(Cl)cc3)c(C(=O)O)s2)ccn1,MIC80,[1],> 32 µg/mL
CCCc1cc(-c2nc(-c3ccc(F)cc3)cs2)ccn1,MIC80,[1],1 µg/mL
Clc1ccc(-c2csc(-c3ccnc(OCC4CC4)c3)n2)cc1,MIC80,[1],2 µg/mL
CCCc1cc(-c2nc(-c3ccc(C(=O)O)cc3)cs2)ccn1,MIC80,[1],16 µg/mL
CCCc1cc(-c2nc(-c3cccc(F)c3)cs2)ccn1,MIC80,[1],1 µg/mL
CCCc1cc(-c2nc(-c3ccc(OC)cc3)cs2)ccn1,MIC80,[1],1 µg/mL
CCCc1cc(-c2csc(-c3ccnc(CCC)c3)n2)ccn1,MIC80,[1],0.25 µg/mL
CCCc1cc(-c2nc(-c3ccc(OCCN4CCOCC4)cc3)cs2)ccn1,MIC80,[1],1 µg/mL
same,solubility,[2],29.8 µM
same,MBC,[3],5.2 µg/mL
same,Ratio,[4],2
same,MIC80,[5],2 µg/mL
same,MIC80,[6],2 µg/mL
same,MIC80,[7],1 µg/mL
same,MIC80,[8],1 µg/mL
same,MIC80,[9],0.5 µg/mL
same,MIC80,[10],1 µg/mL
same,MIC80,[11],1 µg/mL
same,MIC80,[12],1 µg/mL
same,MIC80,[13],1 µg/mL
same,MIC80,[14],2 µg/mL
same,MIC80,[15],1 µg/mL
CCCc1cc(-c2nc(-c3ccc(NS(C)(=O)=O)cc3)cs2)ccn1,MIC80,[1],0.4 µg/mL
same,solubility,[2],1.3 µM
same,fraction unbound,[16],< 0.01
same,microsomal CLint,[17],28.8 µL/min/mg
same,microsomal CLint,[18],4.3 µL/min/mg
same,MIC80,[5],0.25 µg/mL
same,MIC80,[6],0.13 µg/mL
same,MIC80,[7],0.13 µg/mL
same,MIC80,[8],0.13 µg/mL
same,MIC80,[9],0.13 µg/mL
same,MIC80,[10],0.5 µg/mL
same,MIC80,[11],1 µg/mL
same,MIC80,[12],0.5 µg/mL
same,MIC80,[13],0.5 µg/mL
same,MIC80,[14],0.5 µg/mL
same,MIC80,[15],0.25 µg/mL
CCc1cc(-c2nc(-c3ccc(Cl)cc3)cs2)ccn1,MIC80,[1],2 µg/mL
CC(=O)N1CCC(c2nc(-c3ccc(Cl)cc3)cs2)CC1,MIC80,[1],> 32 µg/mL
NNC(=O)c1ccncc1 [ISONIAZID],MIC80,[5],0.06 µg/mL
same,MIC80,[6],0.06 µg/mL
same,MIC80,[7],0.06 µg/mL
same,MIC80,[8],0.06 µg/mL
same,MIC80,[9],0.06 µg/mL
same,MIC80,[10],0.06 µg/mL
same,MIC80,[11],0.06 µg/mL
same,MIC80,[12],0.06 µg/mL
same,MIC80,[13],0.06 µg/mL
same,MIC80,[14],0.06 µg/mL
same,MIC80,[15],0.06 µg/mL
CCCc1cc(-c2nc(-c3ccnc(OCC)c3)cs2)ccn1,MIC80,[1],0.1 µg/mL
same,MBC,[3],0.1 µg/mL
CCCc1cc(-c2nsc(-c3ccnc(CCC)c3)n2)ccn1,MIC80,[1],32 µg/mL
CCCc1cc(-c2nc(-c3ccc(OCCN4CCCC4)cc3)cs2)ccn1,MIC80,[1],4.9 µg/mL
same,solubility,[2],155 µM
same,MBC,[3],4.9 µg/mL
same,Ratio,[4],1
CCCc1cc(-c2nc(-c3cccc(C(F)(F)F)c3)cs2)ccn1,MIC80,[1],0.5 µg/mL
CCCc1cc(-c2nc(-c3ccnc(O[C@H]4CCOC4)c3)cs2)ccn1,MIC80,[1],2 µg/mL
CCCc1cc(-c2nc(-c3ccccc3C(F)(F)F)cs2)ccn1,MIC80,[1],> 32 µg/mL
CCCc1cc(-c2nc(-c3ccccc3F)cs2)ccn1,MIC80,[1],2 µg/mL
CCCc1cc(-c2nc(-c3ccc(OCC4CC4)cc3)cs2)ccn1,MIC80,[1],0.25 µg/mL
same,MIC80,[5],0.5 µg/mL
same,MIC80,[6],0.5 µg/mL
same,MIC80,[7],0.5 µg/mL
same,MIC80,[8],0.25 µg/mL
same,MIC80,[9],0.25 µg/mL
same,MIC80,[10],1 µg/mL
same,MIC80,[11],1 µg/mL
same,MIC80,[12],0.5 µg/mL
same,MIC80,[13],0.5 µg/mL
same,MIC80,[14],0.5 µg/mL
same,MIC80,[15],0.5 µg/mL
CCCc1cc(-c2nc(-c3ccc(OCCN(C)C)cc3)cs2)ccn1,MIC80,[1],16 µg/mL
same,solubility,[2],279 µM
CCNc1cc(-c2nc(-c3ccc(Cl)cc3)cs2)ccn1,MIC80,[1],8 µg/mL
